Measurements taken from patent publication US9296716B2, “Androgen receptor ligands” (THE PROVOST, FELLOWS, FOUNDATION SCHOLARS, & THE OTHER …, priority 2011, dated 2016).
Positions count from the first letter of the chain named. “Also recorded” adds a separate entry of the source. Like-named read-outs stand apart in the source and are kept apart here.

How the values were obtained:
LNCaP cells = experiment: LNCaP cell proliferation assay (androgen deprived, AlamarBlue); assay type: cell-based; conditions: 10^−10M, 0.1% DMSO, steroid depleted conditions
Method: To determine the optimal DHT concentration and length of treatment required for cell proliferation assays, we tested a range of DHT concentrations in 0.1% DMSO for 5 or 7 days in LNCaP cells cultured in FBS stripped phenol red free media. […] Media and treatments were replaced every second incubation day (FIGS. 12 A and B)
For cell viability (end point) assays LNCaP, PC-3 and PWR-1E cells were seeded at 2.5*10^4/ml density in 200 μl volume of a 96-well plate in triplicate and incubated for 24 hours prior testing. Test compounds were included at different concentrations to achieve a final concentration of 0.5% DMSO in each well. Effect of 0.5% DMSO on cell-viability was also evaluated. Cell viability was assessed after 24 hours of treatment using 10% Alamar Blue reagent (Invitrogen) for each well. Cell viability was monitored by the reduction of resazurin, a blue, cell-permeable and non-toxic compound, to resorufin, a red and highly fluorescent product. Viable cells continuously convert resazurin to resorufin, increasing the overall colour and fluorescence of the media surrounding cells. Fluorescence intensity can be quantitatively determined with a fluorescence microplate reader at excitation/emission 544 nm/590 nm (Spectramax Gemini). For hormone dependent cell proliferation assays in androgen deprived LNCaP cells, cells were seeded at 2*10^4 cells/ml in a 24-well plate in triplicate. Cells were plated in phenol red free RPMI Glutamax (Invitrogen) supplemented with 10% charcoal-stripped FBS to deplete endogenous steroids 48 hours prior the assay as described in previous reports. […] Cells were treated with different concentrations of test compounds with or without 0.1 nM DHT to achieve a final concentration of 0.1% DMSO in each well. A control for the vehicle was included to ensure no effect on viability could be detected. Media and treatments were replaced every second day, after washing the cells twice with 1×PBS. Supernatants were collected after five days for secreted PSA levels evaluation and cell proliferation was assessed for the same plate using Alamar Blue in order to exclude non-specific effects due to toxicity issues.

AR-LBD wt = target: T1, AR-LBD wt (Homo sapiens, UniProt P10275); experiment: Lanthascreen TR-FRET AR coactivator (D11-FxxLF) assay, AR-LBD wt; assay type: biochemical; conditions: for type of AR antagonism (full / partial): TR-FRET in agonist and antagonist mode; for IC50: TR-FRET, D11-FxxLF peptide, DHT = EC80
T1 sequence (P10275 669-900 limits assumed): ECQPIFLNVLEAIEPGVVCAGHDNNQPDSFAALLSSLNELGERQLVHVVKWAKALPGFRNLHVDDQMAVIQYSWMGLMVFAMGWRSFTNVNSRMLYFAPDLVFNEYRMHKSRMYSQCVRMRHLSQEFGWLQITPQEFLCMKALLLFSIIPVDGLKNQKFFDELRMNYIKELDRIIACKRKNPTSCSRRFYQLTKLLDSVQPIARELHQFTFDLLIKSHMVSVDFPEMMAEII

[1] = target: T2, AR LBP (AR-LBD and Fluormone complex) (Rattus norvegicus, UniProt P15207); experiment: Fluorescence polarization (PolarScreen) AR competitor assay; assay type: binding; conditions: for displacement of bound fluorescently-labelled ligand from the LBP: FP assay
T2 construct: purchased Invitrogen P3018
T2 sequence (P15207 651-882 limits assumed): T1 sequence (P10275 669-900 limits assumed)
Source text: The TR-FRET assay cannot differentiate between direct coactivator antagonists acting on the LBD surface and ‘classical’ AR antagonists which also functionally disrupt coactivator recruitment by displacing DHT from the ligand binding pocket.
(§1) Fluorescence polarization assays are susceptible by fluorescence interference/aggregation and light scattering issues by compounds present in the wells. This could lead to false positive or false negative hits. This problem is addressed in and the presence of false ‘hits’ can be determined by plotting the total fluorescence intensity of the assay versus the anisotropy for each compound.
(§2) To minimize the possibility of such false negative or positive reporting, the FP data was rigorously interrogated through examination of both auto-fluorescence and aggregation (FIG. 3). […] Diarylhydrazides are AR Potential Selective Coactivator Interaction Disruptors
PolarScreen Androgen Receptor Competitor Assay Kit Green (Invitrogen, cat no. P3018) was used to investigate the binding of the test compound to the LBP site, occupied by a high affinity ligand (Fluormone).
100× test compound solutions in DMSO were diluted in AR green buffer (Invitrogen) to achieve 2× concentrations and placed in a 384 well plate (Corning, cat no. 3576) with 40 μl volume capacity. AR-LBD was supplemented with 5 mM DTT to prevent protein degradation. AR-LBD and Fluormone (2×) mix are prepared separately and then added to each compound dilution to achieve a final concentration LBD-fluormone of 50 nM and 2 nM respectively. Plates were incubated protected from light for at least 4 hours. Controls included a maximum mP positive control, which consists of the AR-LBD and fluormone mix (2×), and a minimum mP control, containing only Fluormone (2×). A vehicle control was added to account for DMSO effect, and a blank control containing buffer only. Fluorescence polarization was measured with PHERAstar equipment (BMG LabTech) using an optic module with excitation at 485 nm and emission at 530 nm.

[2] = target: T3, Estrogen Receptor alpha (ER-α) LBD (Homo sapiens, UniProt P03372); experiment: TR-FRET PGC1-α coactivator recruitment assay, ERα LBD; assay type: biochemical; conditions: Estradiol = EC80; for effect on ERα recruitment of fluorescent labelled PGC1-α: 100 μM to 45 nM; for IC50: TR-FRET, ± SEM (n = 6), read-out: NR LBDs IC50 (μM) ER-α
T3 sequence (P03372 311-547 limits assumed): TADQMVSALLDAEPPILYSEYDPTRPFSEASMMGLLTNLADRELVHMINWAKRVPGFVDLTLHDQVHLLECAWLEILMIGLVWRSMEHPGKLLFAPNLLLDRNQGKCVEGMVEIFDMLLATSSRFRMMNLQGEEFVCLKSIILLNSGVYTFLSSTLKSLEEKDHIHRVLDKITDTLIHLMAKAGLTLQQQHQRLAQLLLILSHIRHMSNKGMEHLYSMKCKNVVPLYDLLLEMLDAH
Method: (§3) Compound binding affinities for Progesterone Receptor (PR), Glucocorticoid Receptor (GR), Estrogen Receptor alpha and Estrogen Receptor beta were determined using TR-FRET (Table 2).
(§4) Selectivity of the diarylhydrazide scaffold for the AR was determined through a TR-FRET assay in ERα (FIGS. 8A & 9A1) and ERR (FIGS. 8B & 9A2). […] The non-LBP nature of this inhibition was confirmed by a FP assay (FIGS. 9C, 9B1 & 9B2).
(§5) Lanthascreen TR-FRET AR Coactivator Assay kit (Invitrogen, cat no. PV4381) was used to screen for potential coactivator disruptors.
(§6) TR FRET values were calculated at 10 flashes per well, using a delay time of 100 μs and integration time 200 μs as recommended by the Invitrogen assay guidelines. […] A serial dilution of compounds was firstly prepared in 100×DMSO (Sigma-Aldrich) starting from the maximum desired concentration to achieve a 12 point range concentration using 96-well polypropylene plates (Nalgene Nunc, Rochester, N.Y.). Each 100× solution was diluted to 2× concentration with TR-FRET co-regulator buffer A (Invitrogen proprietary buffer), yielding a final concentration of 1% DMSO in each well.
(§7) D11-FxxLF and Tb antibody were premixed in light protecting vials prior to use. A final concentration of DTT 5 mM was used in the assay buffer in order to prevent protein degradation. All plates (agonist and antagonist mode) were incubated between 2 and 4 hours at room temperature protected from light prior to TR-FRET measurement. […] Data was fitted using the sigmoidal dose response (variable slope) available from Graphpad Prism 5. Y=Bottom+(Top-Bottom)/(1+10^((Log IC50−X)*HillSlope))
(§8) The same procedure was used for AR T877A (Invitrogen cat no. PV4667), PR (Invitrogen cat no. PV4666), ER-α (Invitrogen cat no. PV4544), ER-β (Invitrogen cat no. PV4541) and GR (Invitrogen cat no. PV4683). The assay was adapted to exclude possible non-specific aggregation mechanism of inhibition by adding very low concentration of detergent Triton X-100 (0.001%) to the assay buffer following the Shoichet review guidelines [Shoichet BK (2006) Screening in a spirit haunted world. Drug Discov Today 11:607-615].

[3] = target: T4, Glucocorticoid Receptor (GR) LBD (Homo sapiens, UniProt P04150); experiment: TR-FRET SRC1-4 coactivator recruitment assay, GR LBD; assay type: biochemical; conditions: Dexamethasone = EC80; for effect on SRC1-4 recruitment by GR LBD: 100 μM to 12.5 μM or single point 100 μM; for IC50: TR-FRET, ± SEM (n = 6), read-out: NR LBDs IC50 (μM) GR
T4 construct: purchased Invitrogen PV4683
T4 sequence (P04150 524-758 limits assumed): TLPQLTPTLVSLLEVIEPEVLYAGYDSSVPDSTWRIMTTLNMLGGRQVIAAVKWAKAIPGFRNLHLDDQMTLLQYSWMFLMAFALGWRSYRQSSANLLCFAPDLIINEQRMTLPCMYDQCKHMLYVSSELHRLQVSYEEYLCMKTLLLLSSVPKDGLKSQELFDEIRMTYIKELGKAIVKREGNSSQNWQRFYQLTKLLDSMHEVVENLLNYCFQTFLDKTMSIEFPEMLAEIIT
Method: as §3
Dexamethasone bound receptor recruitment of the fluorescently labelled SCR1-4 coactivator was unimpaired at screening concentrations up to 100 μM for all the diarylhydrazides evaluated (FIG. 5).
as §5, §6, §7, §8

[4] = target: T5, Progesterone Receptor (PR) LBD (Homo sapiens, UniProt P06401); experiment: TR-FRET SRC1-4 coactivator recruitment assay, PR LBD; assay type: biochemical; conditions: Progesterone = EC80; for effect on PR recruitment of fluorescent labelled SRC1-4: 100 μM to 45 nM; for IC50: TR-FRET, ± SEM (n = 6), read-out: NR LBDs IC50 (μM) PR
T5 construct: purchased Invitrogen PV4666
T5 sequence (P06401 679-913 limits assumed): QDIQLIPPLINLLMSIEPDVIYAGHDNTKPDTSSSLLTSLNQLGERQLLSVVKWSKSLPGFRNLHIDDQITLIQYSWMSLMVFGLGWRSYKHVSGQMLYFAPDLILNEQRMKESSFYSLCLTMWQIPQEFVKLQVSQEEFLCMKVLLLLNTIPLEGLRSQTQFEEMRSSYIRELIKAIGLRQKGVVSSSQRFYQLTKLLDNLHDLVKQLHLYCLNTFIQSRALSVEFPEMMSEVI
Method: as §3, §5, §6, §7, §8

AR-LBD T877A mutant = target: T6, AR-LBD T877A mutant (Homo sapiens, UniProt P10275, T878A); experiment: TR-FRET coactivator assay, AR T877A mutant; assay type: biochemical; conditions: D11-FxxLF peptide, DHT = EC80
T6 construct: purchased Invitrogen PV4667
T6 sequence (P10275 669-900 T878A): T1 sequence (P10275 669-900 limits assumed) with T210A

[5] = target: Estrogen Receptor beta (ER-β) LBD (Homo sapiens, UniProt Q92731); experiment: TR-FRET PGC1-α coactivator recruitment assay, ERβ LBD; assay type: biochemical; conditions: Estradiol = EC80; for effect on ERβ recruitment of fluorescent labelled PGC1-α: 100 μM to 45 nM; for IC50: TR-FRET, ± SEM (n = 6), read-out: NR LBDs IC50 (μM) ER-β
Method: as §3, §4, §5, §6, §7, §8

[6] = Solubility in FP assay buffer (fluorescence interference/aggregation check); assay type: physicochemical; conditions: high concentration (50 μM)
Source text: as §1, §2

Chain of Estrogen Receptor beta (ER-β) LBD (Q92731 264-498 limits assumed): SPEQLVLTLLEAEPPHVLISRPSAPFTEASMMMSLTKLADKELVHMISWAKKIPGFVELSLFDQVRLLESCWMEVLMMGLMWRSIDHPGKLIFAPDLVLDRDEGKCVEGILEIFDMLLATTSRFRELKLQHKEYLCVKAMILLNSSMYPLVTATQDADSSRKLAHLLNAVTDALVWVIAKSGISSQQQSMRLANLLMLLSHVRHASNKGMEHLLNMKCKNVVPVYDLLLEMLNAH

Row | Compound | increase of LNCaP cell proliferation (LNCaP cells) | type of AR antagonism (full / partial) (AR-LBD wt) | displacement of bound fluorescently-labelled ligand from the LBP [1] | effect on ERα recruitment of fluorescent labelled PGC1-α [2] | IC50 [2] | IC50 (AR-LBD wt; read-out: AR (wt)) | IC50 (AR-LBD wt; read-out: Activity (AR wt TR-FRET)) | effect on SRC1-4 recruitment by GR LBD [3] | IC50 [3] | effect on PR recruitment of fluorescent labelled SRC1-4 [4] | IC50 [4] | IC50 (AR-LBD T877A mutant) | effect on ERβ recruitment of fluorescent labelled PGC1-α [5] | IC50 [5] | inhibition at 1 µM ([1]; FP, 1 μM, read-out: inhibition of the LBD-F complex) | solubility in the chosen assay buffer [6]
1 | C[C@]12CCC(=O)C[C@@H]1CC[C@@H]1[C@@H]2CC[C@]2(C)[C@@H](O)CC[C@@H]12 [DHT, dihydrotestosterone, reference compound] | 2 fold |  |  |  |  |  |  |  |  |  |  |  |  |  |  | 
2 | COc1cc(/C=N/NC(=O)c2cc3c(ccc4ccccc43)o2)cc(I)c1O [MDG15] |  | full AR antagonists | inability to displace |  |  |  |  |  |  |  |  |  |  |  |  | 
3 | O=C(N/N=C/c1cccc(O)c1O)c1cc2ccccc2cc1O [MDG173] |  | full AR antagonists | inability to displace |  |  |  |  |  |  |  |  |  |  |  |  | 
4 | O=C(N/N=C/c1cc(Br)ccc1O)c1cc2ccccc2cc1O [MDG292] |  | full AR antagonism; also recorded: full AR antagonists |  | partially inhibit | > 100 µM | 13.3 ± 3.1 µM | 13.3 ± 3.1 µM | do not affect | > 100 µM | partially inhibit | 22.5 ± 5.4 µM | 12.4 ± 2.2 µM | partially inhibit | > 100 µM |  | 
5 | O=C(N/N=C/c1cc2ccccc2cc1O)c1cc2ccccc2cc1O [MDG483] |  | full AR antagonists |  | partially inhibit | 10.2 ± 3 µM |  |  | do not affect | > 100 µM | partially inhibit | 8.4 ± 1.4 µM |  | partially inhibit | 12 ± 0.4 µM | ~0% | solubility issues
